Results published in ChEMBL document CHEMBL1201862, “PubChem BioAssay data set” (2004).
Active and inactive are the calls of the source.

Legend:
[1] = molecular target: Ras and Rab interactor 1/Tyrosine-protein kinase ABL1 (Homo sapiens, UniProt P00519+Q13671); assay type: functional;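 further: biochemical TR-FRET dose-response test measuring inhibition of binding between Rin1 and Abl proteins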
[2] = miR-122 activators in hepatoma reporter cells, dose response, cell-based, Huh7 psiCHECK-miR122, Renilla luciferase, cherry-picked (AID 651956); assay type: functional;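 further: huh7 hepatoma cells stably carrying a psiCHECK-2 miR-122 sensor plasmid; renilla luciferase signal reporting endogenous miR-122 activity after 48 h compound exposure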
Protein skinhead-1 = molecular target: T1, Protein skinhead-1 (Caenorhabditis elegans, UniProt P34707); assay type: functional
T1 sequence (P34707 whole entry): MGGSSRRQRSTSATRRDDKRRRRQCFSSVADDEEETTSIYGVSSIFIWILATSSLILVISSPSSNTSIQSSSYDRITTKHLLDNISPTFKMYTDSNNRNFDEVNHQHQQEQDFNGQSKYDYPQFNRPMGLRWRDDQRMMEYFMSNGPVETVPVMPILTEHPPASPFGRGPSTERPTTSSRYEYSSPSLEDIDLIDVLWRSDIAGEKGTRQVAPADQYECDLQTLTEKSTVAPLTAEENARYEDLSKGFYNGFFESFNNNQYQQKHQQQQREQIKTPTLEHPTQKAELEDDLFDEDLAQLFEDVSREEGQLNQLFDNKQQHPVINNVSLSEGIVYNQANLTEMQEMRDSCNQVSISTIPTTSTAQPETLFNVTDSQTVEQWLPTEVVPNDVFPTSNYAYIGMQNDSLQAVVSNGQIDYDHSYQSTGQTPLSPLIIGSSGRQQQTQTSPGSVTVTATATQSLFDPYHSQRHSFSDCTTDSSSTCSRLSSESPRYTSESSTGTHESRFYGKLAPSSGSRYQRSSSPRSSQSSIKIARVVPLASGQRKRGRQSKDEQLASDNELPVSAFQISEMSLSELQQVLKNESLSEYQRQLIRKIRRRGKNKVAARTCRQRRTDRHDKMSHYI

Cytochrome P450 2C19 = Cytochrome P450 2C19 (Homo sapiens, UniProt P33261); assay: Cytochrome panel assay with activity outcomes. Panel member name: p450-cyp2c19 Compounds with AC50 equal or less than 10 uM are considered active; assay type: functional; details: read-out: AC50
Cytochrome P450 2C19, sequence (P33261 whole entry): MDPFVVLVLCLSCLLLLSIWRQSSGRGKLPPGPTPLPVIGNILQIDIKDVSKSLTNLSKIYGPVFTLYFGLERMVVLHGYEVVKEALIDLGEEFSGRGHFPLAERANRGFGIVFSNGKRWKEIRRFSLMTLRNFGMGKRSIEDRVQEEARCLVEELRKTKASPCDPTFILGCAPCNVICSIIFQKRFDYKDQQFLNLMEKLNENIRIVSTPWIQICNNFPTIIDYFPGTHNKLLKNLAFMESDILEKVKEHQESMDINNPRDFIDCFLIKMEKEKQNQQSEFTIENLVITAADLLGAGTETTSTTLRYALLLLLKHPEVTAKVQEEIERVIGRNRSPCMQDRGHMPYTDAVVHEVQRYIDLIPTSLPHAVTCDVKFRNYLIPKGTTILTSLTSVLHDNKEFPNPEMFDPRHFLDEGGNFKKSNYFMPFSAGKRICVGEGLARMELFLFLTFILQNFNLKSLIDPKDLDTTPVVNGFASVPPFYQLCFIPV

Cytochrome P450 1A2 = molecular target: T2, Cytochrome P450 1A2 (Homo sapiens, UniProt P05177);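 further: PubChem cytochrome P450 panel assay, CYP1A2 panel member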
T2 sequence (P05177 whole entry): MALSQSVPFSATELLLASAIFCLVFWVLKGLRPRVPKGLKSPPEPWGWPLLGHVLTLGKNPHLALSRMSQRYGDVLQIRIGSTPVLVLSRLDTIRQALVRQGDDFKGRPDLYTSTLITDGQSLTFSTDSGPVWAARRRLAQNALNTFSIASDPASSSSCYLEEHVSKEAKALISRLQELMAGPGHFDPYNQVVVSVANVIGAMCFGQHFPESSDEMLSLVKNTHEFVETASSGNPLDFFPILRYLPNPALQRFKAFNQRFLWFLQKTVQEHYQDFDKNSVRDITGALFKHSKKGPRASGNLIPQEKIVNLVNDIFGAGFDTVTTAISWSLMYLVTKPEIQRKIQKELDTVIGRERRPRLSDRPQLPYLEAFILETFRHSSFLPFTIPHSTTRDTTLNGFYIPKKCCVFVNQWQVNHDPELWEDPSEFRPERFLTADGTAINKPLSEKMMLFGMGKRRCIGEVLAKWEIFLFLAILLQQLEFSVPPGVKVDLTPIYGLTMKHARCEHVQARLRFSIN

Cytochrome P450 2C9 = Cytochrome P450 2C9 (Homo sapiens, UniProt P11712)
Cytochrome P450 2C9, sequence (P11712 whole entry): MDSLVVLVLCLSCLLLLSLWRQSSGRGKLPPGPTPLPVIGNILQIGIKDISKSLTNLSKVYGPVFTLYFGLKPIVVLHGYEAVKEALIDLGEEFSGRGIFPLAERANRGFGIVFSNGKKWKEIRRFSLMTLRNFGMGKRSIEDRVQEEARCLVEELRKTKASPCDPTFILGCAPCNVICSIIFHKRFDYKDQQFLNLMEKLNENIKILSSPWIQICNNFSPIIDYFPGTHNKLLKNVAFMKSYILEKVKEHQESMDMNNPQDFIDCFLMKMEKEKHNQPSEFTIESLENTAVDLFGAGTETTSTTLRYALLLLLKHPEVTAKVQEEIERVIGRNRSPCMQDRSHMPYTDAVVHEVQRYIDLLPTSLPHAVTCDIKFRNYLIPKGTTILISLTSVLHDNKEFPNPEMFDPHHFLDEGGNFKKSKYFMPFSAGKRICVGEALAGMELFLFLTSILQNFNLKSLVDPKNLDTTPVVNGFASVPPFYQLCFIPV

[3] = molecular target: T3, Long-chain-fatty-acid--AMP ligase FadD28 (Mycobacterium tuberculosis, UniProt P9WQ59); assay: Fluorescence polarization aasay to screen for inhibitors that compete for the binding of FadD28 to a bisubstrate Measured in Biochemical System Using Plate Reader - 2147-01_Inhibitor_Dose_CherryPick_Activity.; assay type: functional, Mycobacterium tuberculosis H37Rv
T3 sequence (P9WQ59 whole entry): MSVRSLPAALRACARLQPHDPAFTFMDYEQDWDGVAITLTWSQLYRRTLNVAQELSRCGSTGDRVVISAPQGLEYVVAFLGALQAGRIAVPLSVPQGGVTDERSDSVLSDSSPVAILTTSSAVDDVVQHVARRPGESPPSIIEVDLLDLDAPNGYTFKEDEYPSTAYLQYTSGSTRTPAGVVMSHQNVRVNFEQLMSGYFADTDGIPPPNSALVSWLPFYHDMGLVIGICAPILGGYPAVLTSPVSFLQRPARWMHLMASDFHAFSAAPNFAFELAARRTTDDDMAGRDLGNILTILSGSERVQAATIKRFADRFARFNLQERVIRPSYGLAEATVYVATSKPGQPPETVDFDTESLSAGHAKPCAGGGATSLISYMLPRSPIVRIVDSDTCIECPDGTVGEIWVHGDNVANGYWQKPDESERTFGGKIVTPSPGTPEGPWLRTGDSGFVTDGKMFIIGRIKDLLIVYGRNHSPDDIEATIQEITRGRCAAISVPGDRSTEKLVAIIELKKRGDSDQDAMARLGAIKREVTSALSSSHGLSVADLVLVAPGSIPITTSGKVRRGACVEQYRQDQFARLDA

[4] = molecular target: Heat shock protein HSP 90-alpha (Homo sapiens, UniProt P07900); assay type: functional, organism-based
[5] = molecular target: DNA (cytosine-5)-methyltransferase 1 (Homo sapiens, UniProt P26358); assay: DNMT1 methyltransferase inhibitors, confirmation, biochemical, fluorescent molecular beacon (AID 602386); assay type: functional
DNA (cytosine-5)-methyltransferase 1, sequence (P26358 whole entry): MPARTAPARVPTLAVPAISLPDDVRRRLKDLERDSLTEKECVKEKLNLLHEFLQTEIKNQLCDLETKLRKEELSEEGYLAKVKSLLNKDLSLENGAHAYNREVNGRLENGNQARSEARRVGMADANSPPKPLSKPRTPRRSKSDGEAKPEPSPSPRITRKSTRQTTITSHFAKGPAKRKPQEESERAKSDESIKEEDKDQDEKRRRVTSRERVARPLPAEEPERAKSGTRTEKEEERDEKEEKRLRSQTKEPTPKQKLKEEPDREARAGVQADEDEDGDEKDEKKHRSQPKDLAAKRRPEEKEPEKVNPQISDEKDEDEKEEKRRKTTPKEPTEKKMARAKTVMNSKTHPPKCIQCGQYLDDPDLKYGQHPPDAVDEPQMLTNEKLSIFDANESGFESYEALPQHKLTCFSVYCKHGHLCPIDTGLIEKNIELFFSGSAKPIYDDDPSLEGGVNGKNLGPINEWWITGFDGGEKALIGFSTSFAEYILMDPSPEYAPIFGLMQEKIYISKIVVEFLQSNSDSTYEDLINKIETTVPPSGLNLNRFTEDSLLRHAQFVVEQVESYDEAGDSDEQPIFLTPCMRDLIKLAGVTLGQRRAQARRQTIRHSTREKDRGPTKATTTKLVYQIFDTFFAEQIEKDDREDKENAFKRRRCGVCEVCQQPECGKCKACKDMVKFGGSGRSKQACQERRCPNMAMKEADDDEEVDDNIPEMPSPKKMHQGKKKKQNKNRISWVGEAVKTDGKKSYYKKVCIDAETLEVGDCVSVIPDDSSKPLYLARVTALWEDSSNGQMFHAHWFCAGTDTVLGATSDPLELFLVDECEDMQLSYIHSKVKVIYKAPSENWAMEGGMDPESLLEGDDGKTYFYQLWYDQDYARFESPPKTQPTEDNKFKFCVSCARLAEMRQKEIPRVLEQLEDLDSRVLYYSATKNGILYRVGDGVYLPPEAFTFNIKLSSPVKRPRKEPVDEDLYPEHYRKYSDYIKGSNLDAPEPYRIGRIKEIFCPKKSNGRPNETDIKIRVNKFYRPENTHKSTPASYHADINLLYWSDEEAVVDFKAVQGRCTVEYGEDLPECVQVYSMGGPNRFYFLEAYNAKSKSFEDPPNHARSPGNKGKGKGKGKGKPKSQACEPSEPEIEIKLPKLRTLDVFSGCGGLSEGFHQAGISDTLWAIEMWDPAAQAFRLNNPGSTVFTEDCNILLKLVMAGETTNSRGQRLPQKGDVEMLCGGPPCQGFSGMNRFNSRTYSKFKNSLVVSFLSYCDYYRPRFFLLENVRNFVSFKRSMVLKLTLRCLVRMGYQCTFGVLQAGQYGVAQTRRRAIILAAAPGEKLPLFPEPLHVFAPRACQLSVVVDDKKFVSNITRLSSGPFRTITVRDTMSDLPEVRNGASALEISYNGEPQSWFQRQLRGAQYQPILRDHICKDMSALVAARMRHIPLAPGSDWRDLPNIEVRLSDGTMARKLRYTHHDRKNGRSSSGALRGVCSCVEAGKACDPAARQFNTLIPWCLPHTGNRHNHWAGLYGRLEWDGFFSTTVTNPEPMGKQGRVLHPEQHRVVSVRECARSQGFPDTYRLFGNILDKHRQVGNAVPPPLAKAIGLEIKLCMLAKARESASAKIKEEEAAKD

[6] = THP-1 cell cytotoxicity, dose response, cytotoxicity control for Vif-APOBEC3G degradation inhibitor project, THP-1 cells (AID 1117359); assay type: functional; details: Human immunodeficiency virus 1, THP-1
[7] = molecular target: T4, Carboxy-terminal domain RNA polymerase II polypeptide A small phosphatase 1 (Homo sapiens, UniProt Q9GZU7); assay: inhibitors of CTDSP1, concentration-response testing, biochemical assay, absorbance-based, actives from ultra-high-throughput screening (AID 540297); assay type: functional
T4 sequence (Q9GZU7 whole entry): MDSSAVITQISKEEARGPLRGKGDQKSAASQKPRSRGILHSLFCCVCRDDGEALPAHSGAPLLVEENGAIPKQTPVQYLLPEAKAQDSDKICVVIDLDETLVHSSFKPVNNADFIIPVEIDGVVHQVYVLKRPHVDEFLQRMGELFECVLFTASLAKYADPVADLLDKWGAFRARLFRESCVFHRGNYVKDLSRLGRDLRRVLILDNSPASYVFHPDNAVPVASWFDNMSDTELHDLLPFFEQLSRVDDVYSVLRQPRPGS

[8] = NIH-3T3 fibroblast cytotoxicity, dose response, cytotoxicity control, cell-based, fluorescence, Alamar Blue, secondary assay (AID 2327); assay type: functional;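 further: NIH-3T3 mouse fibroblasts cultured with fluconazole at 8 µg/mL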
[9] = C. albicans growth with fluconazole, confirmation, fluorescence, retest (AID 2467); assay type: functional, cell-based
[10] = molecular target: Induced myeloid leukemia cell differentiation protein Mcl-1 (Homo sapiens, UniProt Q07820); assay type: functional
Induced myeloid leukemia cell differentiation protein Mcl-1, sequence (Q07820 whole entry): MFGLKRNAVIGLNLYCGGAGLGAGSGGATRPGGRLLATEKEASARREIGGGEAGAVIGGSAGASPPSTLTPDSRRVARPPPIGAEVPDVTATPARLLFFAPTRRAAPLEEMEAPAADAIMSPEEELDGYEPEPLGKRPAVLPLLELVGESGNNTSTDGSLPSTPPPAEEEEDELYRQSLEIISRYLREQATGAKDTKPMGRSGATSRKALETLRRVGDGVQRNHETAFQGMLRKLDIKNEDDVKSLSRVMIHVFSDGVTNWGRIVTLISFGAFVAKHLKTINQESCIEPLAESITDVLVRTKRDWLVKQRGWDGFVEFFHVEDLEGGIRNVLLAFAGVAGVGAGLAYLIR

Genome polyprotein = Genome polyprotein (dengue virus type 2, UniProt P29990); assay: Dengue-2 NS5 methyltransferase inhibitors, primary screen, biochemical, confirmation dose response (AID 588689); assay type: functional
[11] = molecular target: T5, Heat shock factor protein 1 (Mus musculus, UniProt P38532); assay: HSF1 potentiators in luciferase reporter cells, confirmation, cell-based, NIH3T3, luminescence, dose retest (AID 435004); assay type: functional;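 further: stress induced by proteasome inhibitor MG132 added 30 min after compound; luciferase reporter driven by HSF1 response element in NIH3T3 cells; actives raise luminescence as potentiators of the MG132 stress response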
T5 sequence (P38532 whole entry): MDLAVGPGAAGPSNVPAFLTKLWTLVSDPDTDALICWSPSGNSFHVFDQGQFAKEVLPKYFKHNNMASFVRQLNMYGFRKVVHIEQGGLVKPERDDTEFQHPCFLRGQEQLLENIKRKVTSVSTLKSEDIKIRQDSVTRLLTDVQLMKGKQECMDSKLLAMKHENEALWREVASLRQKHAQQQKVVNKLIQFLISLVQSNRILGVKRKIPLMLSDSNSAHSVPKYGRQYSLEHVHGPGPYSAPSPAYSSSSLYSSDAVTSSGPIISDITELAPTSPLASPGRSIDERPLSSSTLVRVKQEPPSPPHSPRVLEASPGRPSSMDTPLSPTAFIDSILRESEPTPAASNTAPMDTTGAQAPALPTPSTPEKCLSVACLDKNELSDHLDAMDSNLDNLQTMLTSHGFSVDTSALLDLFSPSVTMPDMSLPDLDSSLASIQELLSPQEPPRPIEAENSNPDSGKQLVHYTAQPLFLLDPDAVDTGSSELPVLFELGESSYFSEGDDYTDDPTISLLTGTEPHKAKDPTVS

Leucine aminopeptidase = molecular target: T6, Leucine aminopeptidase (Plasmodium falciparum 3D7, UniProt Q8IL11); assay: P. falciparum M17LAP inhibitors, primary screen, biochemical, fluorogenic H-Leu-NHMec substrate, 1536-well (AID 1619); assay type: functional
T6 sequence (Q8IL11 whole entry): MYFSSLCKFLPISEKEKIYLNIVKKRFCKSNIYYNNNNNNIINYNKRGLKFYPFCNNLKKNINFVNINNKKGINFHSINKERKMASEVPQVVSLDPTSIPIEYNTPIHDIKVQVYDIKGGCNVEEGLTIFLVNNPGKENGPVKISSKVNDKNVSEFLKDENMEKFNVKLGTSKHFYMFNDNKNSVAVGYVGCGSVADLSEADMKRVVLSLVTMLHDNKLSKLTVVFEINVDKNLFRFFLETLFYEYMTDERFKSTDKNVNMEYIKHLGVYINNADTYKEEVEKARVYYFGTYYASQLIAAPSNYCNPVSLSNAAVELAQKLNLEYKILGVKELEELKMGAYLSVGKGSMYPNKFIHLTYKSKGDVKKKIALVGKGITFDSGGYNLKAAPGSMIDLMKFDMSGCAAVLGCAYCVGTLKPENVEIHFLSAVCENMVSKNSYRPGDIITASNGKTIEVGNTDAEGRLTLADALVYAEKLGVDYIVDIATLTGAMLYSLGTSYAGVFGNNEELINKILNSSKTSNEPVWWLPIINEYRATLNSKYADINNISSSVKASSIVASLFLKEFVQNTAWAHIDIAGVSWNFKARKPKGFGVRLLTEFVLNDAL

[12] = cytotoxicity toward DRD oncogenic fibroblasts, dose response, cell-based, non-viral oncogenic, luminescence (AID 1934); assay type: functional; details: Homo sapiens
BJ [13] = assay: cytotoxicity toward Ras-transformed BJeLR fibroblasts, dose response, cell-based, alamar blue fluorescence, cherrypicked samples (AID 2631); assay type: functional; details: Homo sapiens;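 further: confirmatory dose-response assay in RAS-dependent BJ fibroblasts engineered with TERT, LT and ST, with cytotoxicity read by fluorescence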
[14] = inhibitors of SNCA 5'UTR-driven reporter translation, confirmation, H4 neuroglioma cells, luminescence (AID 1988); assay type: functional, cell-based
BJ [15] = assay: cells; assay type: functional, cell-based; details: Homo sapiens
[16] = Luminescence Cell-Based Dose Response HTS to Identify Inhibitors of 5'UTR Stem-Loop Driven Prion Protein mRNA Translation in H4 Neuroglioblastoma Cells. [Related pubchem assays: 1827 (Project Summary), 1813 (Primary HTS)]; assay type: functional
[17] = inhibitors of firefly luciferase expression or activity, dose response, H4 neuroglioma cells, luminescence (AID 1990); assay type: functional, cell-based
BJ [18] = assay: cytotoxicity toward BJ-TERT-LT-ST fibroblasts, dose response, cell-based, RAS-independent, luminescence (AID 1935); assay type: functional; details: Homo sapiens;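 further: BJ fibroblasts immortalized with TERT plus LT and ST oncogenes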
BJ [19] = assay: cytotoxicity toward BJ-TERT fibroblasts, dose response, cell-based, RAS-independent, luminescence (AID 1933); assay type: functional; details: Homo sapiens

Ras and Rab interactor 1/Tyrosine-protein kinase ABL1, sequence (P00519 whole entry): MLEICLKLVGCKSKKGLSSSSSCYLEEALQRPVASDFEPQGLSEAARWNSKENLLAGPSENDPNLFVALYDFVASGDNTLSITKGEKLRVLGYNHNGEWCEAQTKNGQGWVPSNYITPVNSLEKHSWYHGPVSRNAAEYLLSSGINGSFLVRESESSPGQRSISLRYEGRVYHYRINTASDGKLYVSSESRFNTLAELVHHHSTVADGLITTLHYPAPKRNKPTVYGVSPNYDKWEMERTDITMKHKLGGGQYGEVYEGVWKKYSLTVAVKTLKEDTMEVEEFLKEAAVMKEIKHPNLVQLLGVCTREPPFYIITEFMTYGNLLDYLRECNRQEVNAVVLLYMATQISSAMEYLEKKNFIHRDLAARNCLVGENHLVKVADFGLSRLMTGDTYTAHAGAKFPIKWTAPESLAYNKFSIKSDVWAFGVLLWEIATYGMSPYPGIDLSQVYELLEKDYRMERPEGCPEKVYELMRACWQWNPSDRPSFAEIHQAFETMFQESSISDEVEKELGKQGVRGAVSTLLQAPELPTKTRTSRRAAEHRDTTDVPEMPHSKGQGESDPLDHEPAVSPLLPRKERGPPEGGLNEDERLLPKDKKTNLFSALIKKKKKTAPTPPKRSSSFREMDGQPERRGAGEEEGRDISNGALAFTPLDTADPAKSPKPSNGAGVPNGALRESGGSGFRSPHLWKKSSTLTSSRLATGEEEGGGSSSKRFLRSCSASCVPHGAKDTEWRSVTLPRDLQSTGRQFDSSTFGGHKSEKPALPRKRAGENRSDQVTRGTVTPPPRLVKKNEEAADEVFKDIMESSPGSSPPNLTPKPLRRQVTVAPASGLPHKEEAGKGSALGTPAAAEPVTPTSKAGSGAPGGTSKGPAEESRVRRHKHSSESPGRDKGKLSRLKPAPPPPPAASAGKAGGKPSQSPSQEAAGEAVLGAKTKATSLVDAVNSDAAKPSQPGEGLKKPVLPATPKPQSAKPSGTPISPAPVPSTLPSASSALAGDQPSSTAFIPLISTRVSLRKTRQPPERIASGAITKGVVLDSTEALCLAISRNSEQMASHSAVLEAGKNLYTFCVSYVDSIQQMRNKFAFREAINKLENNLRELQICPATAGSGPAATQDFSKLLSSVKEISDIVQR
Ras and Rab interactor 1/Tyrosine-protein kinase ABL1, sequence (Q13671 whole entry): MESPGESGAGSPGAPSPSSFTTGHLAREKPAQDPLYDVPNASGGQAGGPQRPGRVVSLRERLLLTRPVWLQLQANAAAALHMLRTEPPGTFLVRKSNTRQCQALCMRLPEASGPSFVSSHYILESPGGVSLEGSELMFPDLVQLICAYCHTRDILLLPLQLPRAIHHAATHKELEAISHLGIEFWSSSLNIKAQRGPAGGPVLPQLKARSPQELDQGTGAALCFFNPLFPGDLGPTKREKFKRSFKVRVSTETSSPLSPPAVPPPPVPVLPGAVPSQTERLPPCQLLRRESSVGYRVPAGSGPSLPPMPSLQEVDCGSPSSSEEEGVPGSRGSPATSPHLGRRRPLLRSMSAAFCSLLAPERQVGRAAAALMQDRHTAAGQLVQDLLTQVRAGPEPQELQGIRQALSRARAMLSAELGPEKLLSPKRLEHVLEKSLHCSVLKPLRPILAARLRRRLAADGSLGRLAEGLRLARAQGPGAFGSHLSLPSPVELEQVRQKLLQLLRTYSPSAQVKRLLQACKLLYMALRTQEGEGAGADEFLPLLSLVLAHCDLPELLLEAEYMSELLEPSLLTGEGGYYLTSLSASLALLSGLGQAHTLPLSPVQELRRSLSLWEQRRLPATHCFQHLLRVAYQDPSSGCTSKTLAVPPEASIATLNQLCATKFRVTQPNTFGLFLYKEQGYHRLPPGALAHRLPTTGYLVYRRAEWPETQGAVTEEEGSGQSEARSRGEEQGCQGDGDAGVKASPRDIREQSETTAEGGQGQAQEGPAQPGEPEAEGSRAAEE

COC(=O)c1cccc(NC(=O)c2ccc[n+]([O-])c2)c1
IC50 [1]: 18 µM (inactive)

c1ccc(CCNc2nnnn2-c2ccccc2)cc1
AC50 [2]: 9.58 µM (active) | IC50 (Protein skinhead-1): > 100 µM (inactive) | AC50 (Cytochrome P450 2C19): 1.78 µM (inconclusive) | AC50 (Cytochrome P450 1A2): 2.51 µM (inconclusive) | AC50 (Cytochrome P450 2C9): 11.2 µM (inconclusive)

O=C(O)c1[nH]c2ccccc2c1C(c1c(F)cccc1Cl)c1c(C(=O)O)[nH]c2ccccc12
AC50 [3]: 69.9 µM (active)

CCOC(=O)c1cc2cc(OCc3ccccc3)ccc2nc1C
AC50 [4]: 3.93 µM (active)

O=C(Cc1ccc(NC(=O)C2CCN(C(=O)C3CCCC3)CC2)cc1)Nc1ccc(C(=O)N2CCOCC2)cc1
IC50 [1]: 1.54 µM (active)

COc1ccc(S(=O)(=O)N2CCN(C(=O)c3cc4c(s3)CCC4)CC2)cc1
IC50 [5]: 11.3 µM (active) | CC50 [6]: > 40 µM (active) | IC50 [7]: 1.61 µM (active)

COc1ccc(C2CC(=O)Oc3c(C(C)C)ccc(C)c32)cc1 (configuration not stated)
AC50 [3]: > 100 µM (inactive)

O=C(N/N=C/c1ccc(O)c([N+](=O)[O-])c1)C1CC1(c1ccccc1)c1ccccc1 (configuration not stated)
EC50 [8]: > 160 µM (inactive) | AC50 [3]: 22.2 µM (active) | EC50 [9]: 1.04 µM (active)

COc1cccc(-c2csc(N3CCN(CC(=O)Nc4ccc5c(c4)OCO5)CC3)n2)c1
AC50 [2]: 17.2 µM (active)

Cc1cccc(NC(=O)CSc2nnc(-c3ccco3)c(-c3ccco3)n2)c1C
AC50 [3]: > 100 µM (inactive) | CC50 [6]: > 40 µM (active) | IC50 [10]: 5.98 µM (active) | IC50 (Genome polyprotein): 96.3 µM (active) | EC50 [11]: > 260 µM (inactive) | IC50 (Leucine aminopeptidase): 20.6 µM (active)

COc1ccc(S(=O)(=O)N2CCOCC2)cc1NC(=O)CCNC(=O)c1ccc(Br)cc1
EC50 [12]: > 150 µM (not active) | EC50 (BJ [13]): 6.09 µM (active) | EC50 [14]: 1.09 µM (active) | EC50 (BJ [15]): 2.84 µM (inconclusive) | EC50 [16]: 5.78 µM (active) | EC50 [17]: 10.6 µM (active) | EC50 (BJ [18]): 2.02 µM (active) | EC50 (BJ [19]): > 150 µM (not active)

COc1ccc2c(c1)OC[C@H]1[C@H]2N2C(=O)c3cc(Cl)ccc3NC(=O)[C@@]2(C)[C@H]1c1ccccc1
AC50 [4]: 0.976 µM (active)
